From US7605175B2, “Inhibitors of cyclin-dependent kinases, compositions and uses related thereto” (GPC Biotech AG, priority 2001, dated 2009)

Assays:
arrested IMR90 cells = test: Arrested cell assay, arrested IMR90 normal cells; format: cell-based; details: Homo sapiens, IMR-90; serum-starved arrested cells, 72 hours; read-out: Arrested cell assay IMR90 IC50
Protocol: (§1) Cyclin-dependent kinase (Cdk) activity is required to promote the progression of cells through distinct phases of the cell division cycle. The proliferation of normal, non-transformed, cells in culture requires the presence of growth factors, the removal of which, through serum deprivation, leads to a loss of Cdk activity and consequent exit from the cell cycle as cells enter the quiescent phase, G0.
IMR90 cells were plated in triplicate for each compound concentration to be tested in MEM-A media containing 10% fetal calf serum at a density of either 2,000 or 20,000 cells per well in 24-well dishes and incubated overnight at 37° C., 5% CO2. The media was removed from the 20,000 cell-per-well dish, cells were washed once with serum-free media, and serum-free media was placed on cells. The plates containing cells both in the presence and absence of serum were incubated for 3 additional days.
(§2) The cells are incubated in the presence of the compounds for 72 hours (3 days) at 37° C. […] Cycling and arrested HCT-116 cells as well as cycling IMR90 cells were exposed to a panel of 6 doses ranging from 5 to 250 nM. For arrested normal cells, the range of doses was increased to 50 nM to 25 μM, to compensate for the expected decrease in activity.
(§3) The effect of 72 hours of compound exposure on cellular viability was assessed in the Calcein AM assay. Calcein AM is a fluorescent substrate of intracellular esterases that are only active in viable cells. Cleavage of the substrate thus provides a measure of viability, which is proportional to cell number.
(§4) A Calcein AM stock solution was prepared by dissolving a 50 μg aliquot (Molecular Probes catalogue # C3100) in 50 μl DMSO. The tube was incubated at room temperature for approximately 10 minutes to ensure that the Calcein had dissolved completely. The calcein was diluted into 10 ml PBS to prepare the final solution, which was protected from light.
(§5) The media was aspirated off the cells, which were then washed twice with 1 ml PBS to remove the PBS completely from cells by aspiration. 0.5 ml of the Calcein/PBS solution was transferred by pipette into each well. The plates were incubated at 37° C. for 75 minutes (protected from light) and read on a fluorescent plate reader (excitation 485/20 and emission 530/25).

arrested HCT-116 cells = test: Arrested cell assay, arrested HCT-116 tumor cells; format: cell-based; details: Homo sapiens, serum-starved arrested cells, 72 hours, read-out: Arrested cell assay HCT IC50
Protocol: as §1
HCT-116 cells were plated in triplicate for each compound concentration to be tested in RPMI 1640 media containing 10% fetal calf serum at a density of either 200 or 2,000 cells per well in 24 well dishes, and incubated overnight at 37° C., 5% CO2. The media from the plate containing 2,000 cells per well was removed, cells were washed once with serum free media and 1 ml of serum free media was placed on cells. The plates containing cells both in the presence and absence of serum were incubated for 6 additional days.
as §2, §3, §4, §5

HCT-116 cells [1] = test: BrdU incorporation assay; format: cell-based; details: Homo sapiens, read-out: Brd U, concentration that inhibits BrdU incorporation by 50%
Protocol: This method measured the percentage of cells that incorporated the nucleotide analog, BrdU, into newly synthesized DNA as cells progressed through the S phase of the cell cycle. The inhibition of BrdU incorporation was used as a measure of a Cdk inhibitor's effect on S phase progression and DNA replication.
3 sets of HCT-116 cells (100,000 cells/set) were plated in T25 flasks and incubated with a test compound as above. Analysis was done at 24, 48, and 72 hours. BrdU was added to each T-25 flask from a stock of 10 mg/ml to a final concentration of 10 μM and the cells were incubated for an additional 16-18 hours at 37° C. The cells were then prepared for flow cytometric analysis according to manufacturer's protocol (BrdU Flow kit, BD-Pharmingen catalogue #2354KK) as follows:
Cells were harvested (adherent and floating) from the T25 flasks directly into Falcon 12×75 flow cytometric tubes as above followed by fixation and permeabilization with the addition of 100 μl of Cytofix/Cytoperm buffer (30 minutes, room temperature). The cells were then washed with 1 ml of Perm Wash buffer and the cell pellets were resuspended in 100 μl Cytoperm Plus buffer and incubated on ice for 10 minutes. The cells were then washed again with 1 ml of Perm Wash buffer and the fixation was repeated in 100 μl of Cytofix/Cyto Perm buffer for 10 minutes at room temperature. The cells were then washed with 1 ml of Perm Wash buffer. The cells were next treated for one hour at 37° C. with 100 μl DNase to expose incorporated BrdU followed by another wash step with 1 ml of Perm Wash buffer. […] Cells were protected from light and incubated at room temperature for 20-30 minutes. Following the incubation, the cells were washed with 1 ml of Perm Wash buffer, resuspended in 300 μl of 2% FBS in PBS, and analyzed on the flow cytometer. Results are presented in Table 2 as the concentration of compound (μM) that inhibits of BrdU incorporation by 50%.

[2] = target: protein kinase C (mixed isozymes); test: Protein kinase C TCA precipitation assay; format: biochemical, rat; details: Table 5; read-out: PKC IC50
Protocol: Enzymes: Cdc2/cyclin B was obtained from commercial sources. Cdk2/his-cyclin Eshort was expressed in Sf9 cells. Cdk2/cyclin A, cdk4/cyclin D1, and cdk6/cyclin D2 were expressed in Sf9 cells. Protein kinase A (catalytic subunit, from bovine heart) and protein kinase C (mixed isozymes from rat brain) were obtained from commercial sources.
Protein kinase C and protein kinase A were assayed using a TCA precipitation assay with Histone H1 as a substrate. For protein kinase A, the final assay contained 50 mM Tris, 10 mM MgCl2, 1 mM dithiothreitol, pH 7.5, 12 μM adenosine triphosphate, 10% (v/v) dimethylsulfoxide (from compounds), 20 μg Histone H1, 2 μCi [γ-^32P] adenosine triphosphate, 0.2 U protein kinase A in a 100 μL assay. A protein kinase C assay contained 50 mM Tris, 10 mM MgCl2, 1 mM dithiothreitol, 0.8 mM CaCl2, pH 7.5, 5 μM adenosine triphosphate, 10% (v/v) dimethylsulfoxide (from compounds), 20 μg Histone H1, 2 μCi [γ-^32P] adenosine triphosphate, 0.01 U protein kinase C in a 50 μL assay. The assays were started by the addition of enzyme, allowed to react for 10 min at 30° C., and stopped by adding 0.4 volumes of 237 mM disodium ethylenediamine tetraacetate, 105 mM adenosine triphosphate, pH 8.0. […] The filters were washed ten times with 25% (w/v) trichloroacetic acid, and the amount of incorporated [^32P]phosphate was determined by adding 100 μl Microscint and scintillation counting.

IMR90 cells = test: Calcein AM viability assay, IMR90; format: cell-based; details: Homo sapiens, IMR-90, 72 h, read-out: IMR90 viability IC50
Protocol: The potency of Cdk inhibitors, as measured by loss of cellular viability, was determined with the Calcein AM assay (Molecular Probes). Calcein AM is a substrate of intracellular esterases, which is cleaved only in viable cells to generate a fluorescent product that can be quantified with a fluorescent plate reader. The fluorescent signal is proportional to the number of viable cells, and thus loss of signal in response to the exposure of cells to Cdk inhibitors correlates with a loss of viability. This assay can distinguish cell cycle arrest, in which cells may still by viable, from loss of viability and is thus well suited for the evaluation of Cdk inhibitors. A compound that is a potent cytotoxic, may cause significant loss of cell viability in such assay.
Cellular IC50's were determined in the human colorectal carcinoma cell line, HCT-116, and the normal human fibroblast, IMR90. Protein adjusted IC50's were also determined in HCT-116.
HCT-116 or IMR90 cells were recovered from sub-confluent plates by trypsinization and 1,000 or 4,000 cells, respectively, were plated in 24-well dishes and incubated overnight at 37° C., 5% CO2. […]
A 5 μM Calcein AM solution was prepared by dissolving a […] aliquot of Calcein (Molecular Probes catalog # C3100) in 50 μl DMSO. […] (protected from light) and the fluorescent signal was read on a fluorescent plate reader (excitation 485/20 and emission 530/25).

HCT-116 cells [3] = test: Calcein AM viability assay, HCT-116; format: cell-based; details: Homo sapiens
How it was run: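 Cells plated (1,000 HCT-116 in RPMI-1640/10% FCS; 4,000 IMR90 in MEM-alpha/10% FCS), adhered overnight, then given 7 doses of compound at 0-250 nM for 72 h at 37 °C. Viability read by Calcein AM fluorescence (ex 485, em 530) after 75 min; IC50 derived.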

[4] = system: NCI panel of 60 cell lines; test: NCI panel of human tumor cell lines (SRB), Mean-Graph Mid-point; format: cell-based; details: read-out: NCI panel MG-MID (Mean-Graph Mid-point, average IC50 over the whole cell panel)
Source text: (§6) The evaluation of compounds at the National Cancer Institute in their panel of 60 cell lines provides a wealth of information regarding efficacy in a wide range of tumor types and genetic backgrounds. Included within this panel are cell lines derived from leukemia, melanoma and cancers of the lung, colon, brain, ovary, breast, prostate and kidney. Use of this panel provides a measure of the efficacy of compounds in cells with alterations in many genes that are associated with neoplastic transformation including p53 and Her2/Neu as well as those involved in metabolism and those which confer multi-drug resistance. The data generated in these cell lines with the protocol described below can be used to evaluate the activity of compounds.
Cells were grown in RPMI-1640 10% FCS and plated in 96 well micro-titer plates at densities ranging from 5,000 to 40,000 cells/well. The plates were incubated for 24 hours at 37° C., 5% CO2 for 24 hours. Media containing twice the desired final concentration of the compound (5 doses spanning 4 logs) was prepared and 100 μl was added to each well containing 100 μl media plus cells to yield the desired final concentration. The plates were then incubated for an additional 48 hours.
The effect of the compound on cellular viability was determined with the Sulforhodamine B (SRB) assay, which measures total protein. Cells were fixed with cold TCA to a final concentration of 10% and incubated at 4° C. for 60 minutes. The supernatant was discarded and the plates were washed five times with water and air-dried. SRB solution at […] in 1% acetic acid was added to each well and the plates were incubated for 10 minutes at room temperature. The plates were washed five times with 1% acetic acid and air-dried. The bound stain was solubilized with 10 mM trizma base and the absorbance was read on a plate reader at […].

[5] = system: adriamycin resistant cell line (ADR-res); test: NCI panel (SRB), adriamycin resistant cell line; format: cell-based; details: Homo sapiens
Source text: as §6
Cells were grown in RPMI-1640 10% FCS and plated in 96 well micro-titer plates at densities ranging from 5,000 to 40,000 cells/well. The plates were incubated for 24 hours at 37° C., 5% CO2 for 24 hours. […]
The effect of the compound on cellular viability was determined with the Sulforhodamine B (SRB) assay, which measures total protein. […] The bound stain was solubilized with 10 mM trizma base and the absorbance was read on a plate reader at […].

HIV-1 ROJO = test: Antiviral activity in PBMCs infected with HIV-1 ROJO (reverse transcriptase); format: cell-based
Protocol: (§7) The activity of the certain compounds of the invention was evaluated in peripheral blood mononuclear cells (PBMCs) infected with the low passage, clinical isolate HIV-1 ROJO to generate a measure of the efficacy of these compounds in acutely infected cells. The use of these normal human cells allows an estimate of the therapeutic index of these compounds to be made. Fresh PBMCs from two donors were pooled and stimulated with PHA-P for 48-72 hours. The cells were then cultured in the presence of IL-2 to maintain the cell division initiated by the mitogenic signal. The virus was added at a multiplicity of infection of 0.1. The cells were cultured for 7 days post infection prior to the evaluation of efficacy. Viral replication was measured by the level of reverse transcriptase activity in the supernatant and cytotoxicity was measured with the MTS assay.

[6] = system: peripheral blood mononuclear cells (PBMCs); test: Cytotoxicity in PBMCs (MTS assay); format: cell-based, human; details: read-out: TC50: 50% cytoxicity (MTS)
Protocol: as §7

[7] = HCT-116, 72 h, read-out: HCT-116 IC50 Viability

## CC(C)N1CCN(CCOc2ccc(-c3[nH]nc4c3C(=O)c3c(NC(=O)NN5CCOCC5)cccc3-4)cc2)CC1 [E]
Arrested IMR90 cells
  IC50: > 100 nM
Arrested HCT-116 cells
  IC50: < 100 nM
HCT-116 cells [1]; HCT-116, 24 h
  IC50: < 10 nM
HCT-116 cells [1]; HCT-116, 48 h
  IC50: < 100 nM
[2]
  IC50: < 10000 nM

## O=C(Nc1cccc2c1C(=O)c1c-2n[nH]c1-c1ccc(OP(=O)(O)O)cc1)NN1CCOCC1 [J]
IMR90 cells
  IC50: < 100 nM
HCT-116 cells [3]; [7]
  IC50: < 1000 nM

## CC(C)c1nn(-c2c(Cl)cc(Cl)cc2Cl)c2nc(Cc3ccc(OCCN4CCOCC4)cc3)[nH]c(=O)c12 [A]
[4]
  IC50: < 100 nM
[5]
  IC50: < 1000 nM
HCT-116 cells [3]; HCT-116, plus 1 mg/ml alpha acidic glycoprotein and 45 mg/ml human serum albumin, read-out: HCT-116 IC50 Protein adjusted
  IC50: < 1000 nM

## CC(C)c1nn(-c2c(Cl)cccc2Cl)c2nc(Cc3ccc(OP(=O)(O)O)cc3)[nH]c(=O)c12 [Compound B]
IMR90 cells
  IC50: < 1000 nM
HCT-116 cells [3]; [7]
  IC50: < 1000 nM

## Cc1cn([C@H]2C[C@H](N=[N+]=[N-])[C@@H](CO)O2)c(=O)[nH]c1=O [AZT, reference compound]
HIV-1 ROJO
  TI: TC50/IC50: >100
HIV-1 ROJO; read-out: IC50: 50% inhibition of virus replication measured by reverse transcriptase levels in the supernatant, HIV-1 ROJO, 7 days post infection
  IC50: < 10 nM
[6]
  CC50: > 1000 nM
